# Laboratory results from BindingDB's records for PubMed 37939861 (Hebei Normal University).
# Assay: Inhibition of PCSK9 transcriptional activity in human HepG2 cells by luciferase reporter based assay
row,IC50 [µM],Compound
1,3.96,CC(C)(C)OC(=O)N1CCN(Cc2ccc3nc(NC(=O)c4ccc(S(=O)(=O)NCCC#N)cc4)sc3c2)CC1
2,6.53,CCOC(=O)c1ccc2nc(N3CCN(NC(=O)c4ccc(Cl)c(Cl)c4)CC3)sc2c1
